Measurements: patent publication US8216973B2, “2-[(1H-pyrazole-4-ylmethyl)-sulfonyl]-oxazole-derivative, 2-[(1H-pyrazole-4-ylmethyl)-sulfanyl]-oxazole-derivatives, and chiral 2-[(1H-pyrazole-4-ymethyl)sulfinyl]oxazole derivatives, methods for the production thereof, and use thereof as herbicides and plant growth regulators” (Bayer Cropscience AG, priority 2008, dated 2012)

Key:
[1] = tested on: harmful plants such as Echinochloa crus galli, Lolium multiflorum, and Setaria viridis; test: Post-emergence herbicidal effect, greenhouse pot test; assay type: in vivo, monocotyledonous and dicotyledonous weed plants; conditions: post-emergence method, application rate of 0.32 kg and less of active substance per hectare, rated visually after about 3 weeks
Description: 2. Post-Emergence Herbicidal Effect and Crop Plant Compatibility
Seeds of monocotyledonous and dicotyledonous weed and crop plants are placed in sandy loam in wood-fiber pots, covered with soil and cultivated in a greenhouse under good growth conditions. 2 to 3 weeks after sowing, the test plants are treated at the one-leaf stage. The compounds according to the invention, formulated in the form of wettable powders (WP), are then sprayed as aqueous suspension at a water application rate of 600 l/ha (converted) with the addition of 0.2% of wetting agent onto the green parts of the plants. After the test plants have been kept in the greenhouse under optimum growth conditions for about 3 weeks, the activity of the preparations is rated visually in comparison to untreated controls (herbicidal activity in percent (%): 100% activity=the plants have died, 0% activity=like control plants).

[2] = tested on: harmful plants such as Avena fatua, Stellaria media, Echinochloa crus galli, Lolium multiflorum, Setaria viridis, Amaranthus retroflexus, Veronica persica …; test: Pre-emergence herbicidal effect, greenhouse pot test; assay type: in vivo, monocotyledonous or dicotyledonous weed plants; conditions: pre-emergence method, application rate of 0.32 kg and less of active substance per hectare, scored visually after about 3 weeks
Source text: 1. Pre-Emergence Herbicidal Effect and Crop Plant Compatibility
Seeds of monocotyledonous or dicotyledonous weed plants or crop plants are placed in sandy loam in wood-fiber pots and covered with soil. The compounds according to the invention, formulated in the form of wettable powders (WP), are then applied as aqueous suspension at a water application rate of 600 l/ha (converted) with the addition of 0.2% of wetting agent to the surface of the covering soil.
After the treatment, the pots are placed in a greenhouse and kept under good growth conditions for the test plants. After about 3 weeks, the effect of the preparations is scored visually in comparison with untreated controls (herbicidal effect in percent (%): 100% activity=the plants have died, 0% activity=like control plants).

| SMILES | herbicidal activity against harmful plants [1] | herbicidal activity against harmful plants [2] |
| --- | --- | --- |
| Cn1nc(C(F)(F)F)c(C[S+]([O-])c2ncco2)c1OC(F)F (racemic) [compound 50, 2-({[5-(Difluoromethoxy)-1-methyl-3-(trifluoromethyl)-1H-pyrazol-4-yl]methyl}sulfinyl)-1,3-oxazole] | very good herbicidal activity | very good herbicidal activity |
| Cn1nc(C(F)(F)F)c(C[S+]([O-])c2ncco2)c1Cl (centres unmarked) [Compound No. 35, 2-({[5-(Chloro)-1-methyl-3-(trifluoromethyl)-1H-pyrazol-4-yl]methyl}sulfinyl)-1,3-oxazole] | very good herbicidal activity | very good herbicidal activity |
| Cn1nc(C(F)(F)F)c(C[S+]([O-])c2ncco2)c1C(F)(F)F (centres unmarked) [Compound No. 230, 2-({[1-Methyl-3,5-bis(trifluoromethyl)-1H-pyrazol-4-yl]methyl}sulfinyl)-1,3-oxazole] | very good herbicidal activity | very good herbicidal activity |
| Cn1nc(C(F)(F)F)c(C[S+]([O-])c2ncc(Cl)o2)c1OC(F)F (centres unmarked) [Compound No. 542, 5-Chloro-2-({[5-(difluoromethoxy)-1-methyl-3-(trifluoromethyl)-1H-pyrazol-4-yl]methyl}sulfinyl)-1,3-oxazole] | very good herbicidal activity | very good herbicidal activity |
| Cn1nc(C(F)(F)F)c(C[S+]([O-])c2ncc(Br)o2)c1OC(F)F (centres unmarked) [Compound No. 788, 5-Bromo-2-({[5-(difluoromethoxy)-1-methyl-3-(trifluoromethyl)-1H-pyrazol-4-yl]methyl}sulfinyl)-1,3-oxazole] |  | very good herbicidal activity |
| Cn1nc(C(F)(F)F)c(CS(=O)(=O)c2ncc(Br)o2)c1OC(F)F [Compound No. 789, 5-Bromo-2-({[5-(difluoromethoxy)-1-methyl-3-(trifluoromethyl)-1H-pyrazol-4-yl]methyl}sulfonyl)-1,3-oxazole] |  | very good herbicidal activity |
| Cn1nc(C(F)(F)F)c(C[S+]([O-])c2ncc(I)o2)c1OC(F)F (centres unmarked) [Compound No. 1034, 5-Iodo-2-({[5-(difluoromethoxy)-1-methyl-3-(trifluoromethyl)-1H-pyrazol-4-yl]methyl}sulfinyl)-1,3-oxazole] |  | very good herbicidal activity |
| Cn1nc(C(F)(F)F)c(C[S@+]([O-])c2ncc(Cl)o2)c1OC(F)F [Compound No. 2449] |  | very good herbicidal activity |
| Cn1nc(C(F)(F)F)c(C[S@+]([O-])c2ncc(Br)o2)c1OC(F)F [Compound No. 2531] |  | very good herbicidal activity |
| Cn1nc(C(F)(F)F)c(CS(=O)(=O)c2ncco2)c1OC(F)F [compound 51, 2-({[5-(Difluoromethoxy)-1-methyl-3-(trifluoromethyl)-1H-pyrazol-4-yl]methyl}sulfonyl)-1,3-oxazole] | very good herbicidal activity | very good herbicidal activity |
| Cn1nc(C(F)(F)F)c(C[S@+]([O-])c2ncco2)c1OC(F)F [compound 2285, 2-[(S)-{[5-(Difluoromethoxy)-1-methyl-3-(trifluoromethyl)-1H-pyrazol-4-yl]methyl}sulfinyl]-1,3-oxazole] | very good herbicidal activity | very good herbicidal activity |
